The text below walks through data of article PMC10123561 (Signal Transduction and Targeted Therapy, 2023).

“And” between values parts separate entries of the source, which are not always exact repeats. Identical values can stand only once. Counter-ions that a name gives are not always drawn.

The subject of experiment [1] is SARS-CoV-2 Delta. It is filed as cell-based.
For experiment [2], the system named is SARS-CoV-2 Omicron. It counts as cell-based.

Turning to `CCC(CC)COC(=O)[C@H](C)N[P@](=O)(OC[C@H]1O[C@@](C#N)(c2ccc3c(N)ncnn23)[C@H](O)[C@@H]1O)Oc1ccccc1` [Remdesivir], the EC50 is 0.85 µM and 1.11 µM in experiment [1]; 1.5 ± 0.2 µM in experiment [2].
For the compound `Cc1c(O)cccc1C(=O)N[C@@H](CSc1ccccc1)[C@H](O)CN1C[C@H]2CCCC[C@H]2C[C@H]1C(=O)NC(C)(C)C` [nelfinavir, Nelfinavir Mesylate], the EC50 in experiment [1] was 2.09 µM and 1.76 µM; in experiment [2] it was 2.03 µM and 1.73 µM.
